Assay results published in patent US6326177A, “Method and apparatus for intracellular electro-manipulation” (Eastern Virginia Medical School of the Medical College of …, priority 2000, dated 2001).
“Also recorded” adds a separate entry of the source.

How the values were obtained:
eosinophils = test: Free calcein staining of eosinophil granules after Triton X-100 treatment (fluorescence and Wright-Giemsa microscopy); assay type: cell-based, human; conditions: 5 minutes
Description: BOTTOM ROW: Wright-Giemsa stained (above) and fluorescent (below) images of eosinophils treated with 1 μM free calcein+0.005% Triton X-100 for 5 minutes (left), eosinophils treated with 0.01% Triton X-100+1 μM free calcein (5 minutes) (center) and eosinophils incubated in 0.05% Triton X-100+1 μM free calcein for 5 minutes.
Free calcein is a highly fluorescent modified fluorescein with 6 negative and 2 positive charges that is membrane impermeant. In its methyl ester form, calcein-AM, it is non-fluorescent and membrane permeable. When used as a fluorescent stain for cells, calcein-AM passes through the surface membrane and is cleaved to free calcein+the methyl ester residue by intracellular esterase activities. This modification traps the free calcein in the cytoplasm of the cell, and retention of the free calcein is a common criterion for intactness of the surface membrane.

PMN = test: Triton X-100 effect on PMN in the free calcein staining experiment; assay type: cell-based, human; conditions: 5 minutes
Description: Aliquots of an eosinophil-enriched leukocyte preparation (65% eosinophils) were exposed to 1 μM free calcein in HBSSw/o plus increasing amounts (0%-0.05%) Triton X-100 (5 minutes, 25° C.) and examined microscopically. […] Red eosinophil autofluorescence was readily visible and was also visible in all conditions up to and including the free calcein +0.01% Triton exposure. […] After Wright-Giemsa staining, these were recognized to be the residual nuclei of fully detergent-solubilized cells (pale green fluorescence) with associated eosinophilic granules corresponding exactly to the punctate areas of bright fluorescence (see FIG. 26).
Calcein-AM stained eosinophils trap free calcein in their cytoplasm after staining (left), and the intracellular free calcein is excluded from the eosinophil's large granules as shown on the left.

[1] = 0.001% Triton X-100 + 1 μM free calcein
[2] = 0.005% Triton X-100 + 1 μM free calcein

Row | Compound | calcein staining of eosinophils exposed to free calcein without Triton (eosinophils; 1 μM free calcein in HBSSw/o, 0% Triton, 25° C.) | free calcein staining / detergent effect on eosinophils (eosinophils; [1]) | free calcein staining / detergent effect on eosinophils (eosinophils; [2]) | free calcein staining / detergent effect on eosinophils (eosinophils; 0.01% Triton X-100 + 1 μM free calcein) | free calcein staining / detergent effect on eosinophils (eosinophils; 0.05% Triton X-100 + 1 μM free calcein) | free calcein staining / detergent effect on PMN (PMN; [1]) | free calcein staining / detergent effect on PMN (PMN; [2])
1 | O=C(O)CN(CC(=O)O)Cc1cc2c(cc1O)Oc1cc(O)c(CN(CC(=O)O)CC(=O)O)cc1C21OC(=O)c2ccccc21 [free calcein] | no calcein staining; also recorded: incapable of staining eosinophil cytoplasm |  |  |  |  |  | 
2 | Triton X-100 |  | free calcein continues to be excluded from eosinophils | the morphology of some eosinophils suggests partial detergent solubilization which is accompanied by bright free calcein staining of eosinophil granules | occasional eosinophils showed an isolated bright green granule within the eosinophil autofluorescence pattern; also recorded: all eosinophils show nuclear changes suggestive of detergent effect, and many contain 1-2 bright granules on a background of red autofluorescence | many discrete areas of pale green fluorescence with overlying, bright green punctate areas of fluorescence; also recorded: only eosinophil nuclear remnants are seen | stains the fine granules of a PMN showing obvious detergent effects | detergent solubilized PMN show very fine, fluorescent "calcein sand" staining patterns
